Measured values published in patent US6147068A, “Lipophilic polyamine esters for the site specific delivery of nitric oxide in pharmaceutical use” (The University of Akron, priority 1998, dated 2000).

Assay: Nitric oxide release profile of NONOates (nitric oxide analyzer)
Format: physicochemical
Procedure: Using a Monitor Labs Model 8440 Nitric Oxide Analyzer, interfaced with an HP 3396 A Chromatography Integrator, the nitric oxide release from the above synthesized NONOates was measured. […] Teflon® flow meters were inserted at the beginning of the circuit just before entry into the analyzer, and a helium tank with regulator was connected to the first flow meter.
The release profile was performed by adding about 3 to about 8 mg of the NO donor molecules prepared above to 25 ml of phosphate-buffered saline (PBS) (pH 7.4) in an impinger bottle that was subjected to continuous stirring. Varying amounts of the lung surfactant Survanta was added to certain samples, as were the surfactants Tween® 20 and Tween® 80. Tween® is available from Fisher Scientific Company, Fair Lawn, N.J. Still in other examples, the NONOates were simply dissolved in THF. Although the NONOates are insoluble in aqueous solution, sonication pulverized the compound adequately to produce fine particles that increased the surface area of the compound allowing a suspension to form. Once the impinger bottle was assembled, it was held in a water sonicator bath and sonicated until the insoluble sample was pulverized into fine particles or an emulsion. The amount of liberated NO was determined by the daily or timely flushing of helium through the solution and into the analyzer. Typically, measurements were taken every 2-4 hours during the first 18 hours and then every 12 hours thereafter. Eventually, readings only needed to be taken every 24 hours as the end of the release profile was approached. Helium gas was flushed through the system at 12 psig and the first flow meter was set to 150 ml/min. The second flow meter was adjusted to allow maximum flow. The released data was then used to compile the release profiles represented in FIGS. 3-10. The release profiles as represented in FIGS. 3-10 depict NO release from the NONOates in nmol NO/mg NONOate versus time in hours.
Based on these release profiles, the half-life and % Release for each NONOate prepared above was calculated and is represented in Table I, which represents NO release in PBS at pH 7.4.

`CC(C)CCC[C@@H](C)[C@H]1CC[C@H]2[C@@H]3CC=C4C[C@@H](OC(=O)CCN(CCCCN)[N+]([O-])=NO)CC[C@]4(C)[C@H]3CC[C@]12C` [CPNO, Cholesterylputreanine-NONOate] gave a half-life (1% survanta, half-life (NO release)) of 2.58 days, a half-life (5% & 10% survanta, half-life (NO release)) of 1.62 days and a half-life (5% tween 20, half-life (NO release)) of 4.33 days. For the same compound, the half-life (10% tween 20, half-life (NO release)) was 3 days, the “half-life (NO release)” value (pbs, pH 7.4) was “about 60 hr” and the half-life (pbs, pH 7.4, half-life (NO release)) was 2.5 days. It also gave a half-life (thf, pH 1, half-life (NO release)) of 0.875 days.
With Dihexadecanylspermate-NONOate [DiHSNO] the “% Release (NO)” value (PBS, pH 7.4) was “about 7.4%”.
